# Measurements taken from ChEMBL document CHEMBL1201862, “PubChem BioAssay data set” (2004).
# Where “and” joins values, the source holds several entries; their conditions need not be identical. Identical values can stand only once.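 Tested at 5 concentrations; 48 h exposure; 96-well plates; endpoints linearly interpolated, else capped at highest concentration. GI50: concentration for 50% inhibition of growth.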 Calls of active or inactive are those of the source. No stated cut-off is given here; in the data, active = GI50 up to about 1.1 µM and inactive = higher.
# Legend:
# Experiment in all cases: NCI anticancer screen, dose series, 48 h
# BT-549 = system: BT-549
# MDA-N = system: MDA-N
# DLD-1 = system: DLD-1
# DMS-114 = system: DMS-114
# DMS-273 = system: DMS-273
# LXFL 529 = system: LXFL 529
# M19-MEL = system: M19-MEL
# XF498 = system: XF498
smiles,measurement,setting,value
OCCCNCc1ccccn1,GI50,BT-549,> 100 µM (inactive)
same,GI50,MDA-N,> 100 µM (inactive)
CN(CC(=O)O)Cc1c[nH]c2ccccc12,GI50,BT-549,> 100 µM (inactive)
same,GI50,MDA-N,> 100 µM (inactive)
N#CC[N+]1(Cc2ccccn2)CCCC1.O=S(=O)([O-])c1ccccc1,GI50,BT-549,> 100 µM (inactive)
same,GI50,MDA-N,> 100 µM (inactive)
O=C(c1no[n+]([O-])c1C(=O)c1csc2ccccc12)c1csc2ccccc12,GI50,BT-549,6.55 µM (inactive)
same,GI50,MDA-N,8.69 µM (inactive)
CC1=NN(C(=O)CC(=O)Nc2cccc(Cl)c2)C(=O)C1/N=N/c1ccc(S(N)(=O)=O)cc1 (stereo not given),GI50,DLD-1,> 100 µM (inactive)
same,GI50,DMS-114,> 100 µM (inactive)
same,GI50,DMS-273,> 100 µM (inactive)
same,GI50,LXFL 529,> 100 µM (inactive)
same,GI50,M19-MEL,> 100 µM (inactive)
same,GI50,XF498,> 100 µM (inactive)
CC(=O)c1c(SCCN2CCOCC2)n(-c2ccccc2)c(=S)n(-c2ccccc2)c1=O,GI50,BT-549,21.1 µM (inactive)
same,GI50,MDA-N,18.8 µM (inactive)
CC(C)c1ccc(/C=C2/C=C(c3ccc4ccccc4c3)OC2=O)cc1,GI50,BT-549,33.3 µM (inactive)
C/C(=N/NC(=S)N1CCCCCC1)c1cccc(/C(C)=N\NC(=S)N2CCCCCC2)n1,GI50,MDA-N,2.23 µM (inactive)
C/C(=N/OCCC(=O)O)C1CC1,GI50,DLD-1,> 100 µM (inactive)
same,GI50,DMS-114,> 100 µM (inactive)
same,GI50,DMS-273,> 100 µM (inactive)
same,GI50,LXFL 529,> 100 µM (inactive)
same,GI50,M19-MEL,> 100 µM (inactive)
same,GI50,XF498,> 100 µM (inactive)
O=C(c1ccccc1)c1nnn(Cc2ccccc2Cn2nnc(C(=O)c3ccccc3)c2C(=O)c2ccccc2)c1C(=O)c1ccccc1,GI50,DLD-1,> 100 µM (inactive)
same,GI50,DMS-114,81.1 µM (inactive)
same,GI50,DMS-273,> 100 µM (inactive)
same,GI50,LXFL 529,> 100 µM (inactive)
same,GI50,M19-MEL,> 100 µM (inactive)
O=C(c1ccccc1)c1ccc(N2C(=O)/C(=C/c3ccccc3S)N=C2c2ccccc2)c(N2C(=O)/C(=C/c3ccccc3S)N=C2c2ccccc2)c1,GI50,BT-549,49.3 µM (inactive)
same,GI50,MDA-N,36.5 µM (inactive)
COc1ccc(C=O)cc1OS(=O)(=O)C(F)(F)C(F)(F)C(F)(F)C(F)(F)F,GI50,BT-549,30.2 µM (inactive)
same,GI50,MDA-N,19 µM (inactive)
O=c1c(Nc2ccccc2)cn(CCOc2ccccc2)c(=O)n1CCOc1ccccc1,GI50,BT-549,20.8 µM (inactive)
same,GI50,MDA-N,> 100 µM (inactive)
CCCCCCCc1c(Cl)nc(Cl)nc1Cl,GI50,MDA-N,3.75 µM (inactive)
COc1ccc(-c2c(C3=NCCCN3)nnn2-c2ccc([N+](=O)[O-])cc2)cc1,GI50,DLD-1,> 100 µM (inactive)
same,GI50,DMS-114,> 100 µM (inactive)
same,GI50,DMS-273,> 100 µM (inactive)
same,GI50,LXFL 529,> 100 µM (inactive)
same,GI50,M19-MEL,> 100 µM (inactive)
CC(C)=CCSC1CC2C(CC1(C)O)C2(C)C (stereo not given),GI50,DLD-1,17.3 µM (inactive) and 13.8 µM (inactive)
same,GI50,DMS-114,15.6 µM (inactive) and 10.1 µM (inactive)
same,GI50,DMS-273,15.8 µM (inactive) and 9.98 µM (inactive)
same,GI50,LXFL 529,17.3 µM (inactive) and 14 µM (inactive)
same,GI50,XF498,4.84 µM (inactive) and 4.62 µM (inactive)
Nc1cccc(/C=C/CN2CCN(CCOC(c3ccccc3)c3ccccc3)CC2)c1,GI50,BT-549,16.1 µM (inactive)
O=[N+]([O-])c1cccc([N+](=O)[O-])c1S(=O)(=O)c1ccccc1,GI50,BT-549,3.08 µM (inactive)
same,GI50,MDA-N,5.51 µM (inactive)
COc1ccc(-c2c(C3=NCCN3)nnn2-c2ccccc2)cc1,GI50,DLD-1,> 100 µM (inactive)
same,GI50,DMS-114,> 100 µM (inactive)
same,GI50,DMS-273,> 100 µM (inactive)
same,GI50,LXFL 529,> 100 µM (inactive)
same,GI50,M19-MEL,> 100 µM (inactive)
same,GI50,XF498,> 100 µM (inactive)
Cc1ncc(CO)c(CN)c1O,GI50,BT-549,> 100 µM (inactive)
same,GI50,MDA-N,> 100 µM (inactive)
Cc1ccc(-c2cc(=S)n(-c3ccccc3)c3[nH]c(=S)n(-c4ccccc4)c(=N)c23)cc1,GI50,DLD-1,> 100 µM (inactive)
same,GI50,DMS-114,> 100 µM (inactive)
same,GI50,DMS-273,> 100 µM (inactive)
same,GI50,LXFL 529,> 100 µM (inactive)
same,GI50,M19-MEL,> 100 µM (inactive)
O=c1[nH]nc(Cc2ccc(Cl)cc2)n1O,GI50,MDA-N,> 100 µM (inactive)
Cc1ccc2c(c1)CC1(Cc3cccc(C)c3C1=O)C2=O (stereo not given),GI50,MDA-N,> 10 µM (inactive)
C/C(=C/CNc1ncnc2c1ncn2CCC#N)CO,GI50,MDA-N,> 100 µM (inactive)
CC1(C)OC2[C@@H](CO[C@@]3([C@H]4OC(C)(C)O[C@@H]4CO)OC(C)(C)O[C@@H]23)O1 (stereo not given in full),GI50,BT-549,> 100 µM (inactive)
same,GI50,MDA-N,> 100 µM (inactive)
Cn1/c(=N\S(=O)(=O)c2ccccc2)[nH]c2ccccc21,GI50,BT-549,> 100 µM (inactive)
same,GI50,MDA-N,> 100 µM (inactive)
O=C(O)c1ccc(C(O)(c2ccccc2)c2ccccc2)cc1,GI50,BT-549,> 100 µM (inactive)
same,GI50,MDA-N,> 100 µM (inactive)
CC1(CF)SCc2nc3ccccc3n21 (stereo not given),GI50,BT-549,> 100 µM (inactive)
same,GI50,MDA-N,> 100 µM (inactive)
COc1cc(/C=C2\C(=O)N(C(=O)c3ccc(NC(C)=O)cc3)N=C2C)ccc1O,GI50,DLD-1,> 100 µM (inactive)
same,GI50,DMS-114,> 100 µM (inactive)
same,GI50,DMS-273,> 100 µM (inactive)
same,GI50,M19-MEL,> 100 µM (inactive)
CCCCCCCCCCCCNC(C)=O,GI50,BT-549,13.7 µM (inactive)
same,GI50,MDA-N,16.7 µM (inactive)
Cc1ccc(S[C@@H](C)[C@@](O)(C(N)=O)c2ccccc2)cc1,GI50,BT-549,30.1 µM (inactive)
same,GI50,MDA-N,33.8 µM (inactive)
CCc1ccccc1NC(=O)C1=C(C)NC(C)=C(C(=O)Nc2ccccc2CC)C1c1ccc(NC(C)=O)cc1,GI50,DLD-1,26.5 µM (inactive)
same,GI50,DMS-114,28.1 µM (inactive)
same,GI50,LXFL 529,33 µM (inactive)
same,GI50,M19-MEL,32.7 µM (inactive)
